# US20210024542A1 (Torcept Therapeutics, Inc., priority 2018, published 2021)
# Legend:
# Type in all cases: cell-based, human
# NCIH446 = assay: OncoPanel cell proliferation assay, NCIH446; conditions: for Relative cell count (%) Mean: NCIH446
# Description: (§1) Cells were grown in RPMI 1640, 10% FBS, 2 mM L-alanyl-L-glutamine, 1 mM Na pyruvate, or a special medium. Cells were seeded into 384-well plates and incubated in a humidified atmosphere of 5% CO2 at 37° C. Compounds were added the day following cell seeding. At the same time, a time zero untreated cell plate was generated. After a 3-day incubation period, cells were fixed and stained to allow fluorescence imaging of nuclei. Compounds (1 mM stock solutions) were serially diluted in half-log steps from the highest test concentration ([…]), and assayed over 10 concentrations with a maximum assay concentration of 0.1% DMSO. Automated fluorescence microscopy was carried out using a Molecular Devices ImageXpress Micro XL high-content imager, and images were collected with a 4× objective. 16-bit TIFF images were acquired and analyzed with MetaXpress 5.1.0.41 software.
# (§2) Cell proliferation was measured by the fluorescence intensity of an incorporated nuclear dye. The output is referred to as the relative cell count, where the measured nuclear intensity is transformed to percent of control (POC) using the following formula: […]
# (§3) Cellular response parameters were calculated using nonlinear regression to a sigmoidal single-site dose response model:
# (§4) Where y is a response measured at concentration x, A and B are the lower and upper limits of the response, C is the concentration at the response midpoint (EC50), and D is the Hill Slope (Ref. 1).
# (§5) EC50 is the test compound concentration at the curve inflection point or half the effective response (parameter C of the fitted curve solution). GI50 is the concentration needed to reduce the observed growth by half (midway between the curve maximum and the time zero value). “Cell Count Activity Area” is an estimate of the integrated area above the curve (Barretina, et al. The Cancer Cell Line Encyclopedia enables predictive modelling of anticancer drug sensitivity. Nature 483: 603-607). […] In rare instances, values <0 or >10 may be observed. […] Curve-fitting, calculations, and report generation was performed using a custom data reduction engine and MathIQ based software (AIM).
# SW684 = assay: OncoPanel cell proliferation assay, SW684; conditions: for Relative cell count (%) Mean: SW684
# Description: as §1, with “Cells” for “Cells were grown in RPMI 1640, 10% FBS, 2 mM L-alanyl-L-glutamine, 1 mM Na pyruvate, or a special medium. Cells”
# as §2, §3, §4
# (§6) GI50 is the concentration needed to reduce the observed growth by half (midway between the curve maximum and the time zero value). […] In rare instances, values <0 or >10 may be observed. […] Curve-fitting, calculations, and report generation was performed using a custom data reduction engine and MathIQ based software (AIM).
# Hs 729 = assay: OncoPanel cell proliferation assay, Hs 729; conditions: for Relative cell count (%) Mean: Hs 729
# Description: as §1, §2, §3, §4, §5
# A388 = assay: OncoPanel cell proliferation assay, A388; conditions: for Relative cell count (%) Mean: A388
# Description: as §1, with “Cells” for “Cells were grown in RPMI 1640, 10% FBS, 2 mM L-alanyl-L-glutamine, 1 mM Na pyruvate, or a special medium. Cells”
# as §2, §3, §4, §6
# AGS = assay: OncoPanel cell proliferation assay, AGS
# Description: as §1, §2, §3, §4, §5
# CRO-AP2 = assay: OncoPanel cell proliferation assay, CRO-AP2; conditions: for Relative cell count (%) Mean: CRO-AP2
# Description: as §1, §2, §3, §4, §5
# CML-T1 = assay: OncoPanel cell proliferation assay, CML-T1; conditions: for Relative cell count (%) Mean: CML-T1
# Description: as §1, §2, §3, §4, §5
smiles,measurement,setting,value
"CO[C@H]1C[C@@H]2CC[C@@H](C)[C@@](O)(O2)C(=O)C(=O)N2CCCC[C@H]2C(=O)O[C@H]([C@H](C)C[C@@H]2C[C@@H]3C[C@H]2C[C@H]3O)CC(=O)[C@H](C)/C=C(\C)[C@@H](O)[C@@H](OC)C(=O)[C@H](C)C[C@H](C)/C=C/C=C/C=C/1C [Formula I, 37R-hydroxynorbornylrapamycin]",EC50,"NCIH446; Homo sapiens, NCI-H446, 72 h, NCIH446, 3-day incubation, read-out: Cell Count EC50",1.37 nM
same,GI50,"NCIH446; Homo sapiens, NCI-H446, 72 h, NCIH446, 3-day incubation, read-out: Cell Count GI50",75.5 nM
same,IC50,"NCIH446; Homo sapiens, NCI-H446, 72 h, NCIH446, 3-day incubation, read-out: Cell Count IC50",> 1000 nM
same,Cell Count Activity Area,"NCIH446; NCIH446, scale 0-10",1.96
same,Relative cell count (%) Mean,NCIH446; 1.00E+00 microM,69.7%
same,Relative cell count (%) Mean,NCIH446; 1.00E−01 microM,77.0%
same,Relative cell count (%) Mean,NCIH446; 1.00E−02 microM,75.9%
same,Relative cell count (%) Mean,NCIH446; 1.00E−03 microM,88.1%
same,Relative cell count (%) Mean,NCIH446; 1.01E−04 microM,102.8%
same,Relative cell count (%) Mean,NCIH446; 3.16E−01 microM,71.2%
same,Relative cell count (%) Mean,NCIH446; 3.17E−02 microM,85.0%
same,Relative cell count (%) Mean,NCIH446; 3.17E−03 microM,82.3%
same,Relative cell count (%) Mean,NCIH446; 3.18E−04 microM,100.1%
same,Relative cell count (%) Mean,NCIH446; 3.18E−05 microM,99.4%
same,EC50,"SW684; Homo sapiens, 72 h, SW684, 3-day incubation, read-out: Cell Count EC50",0.477 nM
same,GI50,"SW684; Homo sapiens, 72 h, SW684, 3-day incubation, read-out: Cell Count GI50",0.286 nM
same,IC50,"SW684; Homo sapiens, 72 h, SW684, 3-day incubation, read-out: Cell Count IC50",21.1 nM
same,Cell Count Activity Area,"SW684; SW684, scale 0-10",3.93
same,Relative cell count (%) Mean,SW684; 1.00E+00 microM,44.1%
same,Relative cell count (%) Mean,SW684; 1.00E−01 microM,51.0%
same,Relative cell count (%) Mean,SW684; 1.00E−02 microM,55.0%
same,Relative cell count (%) Mean,SW684; 1.00E−03 microM,68.8%
same,Relative cell count (%) Mean,SW684; 1.01E−04 microM,89.3%
same,Relative cell count (%) Mean,SW684; 3.16E−01 microM,47.1%
same,Relative cell count (%) Mean,SW684; 3.17E−02 microM,52.7%
same,Relative cell count (%) Mean,SW684; 3.17E−03 microM,60.7%
same,Relative cell count (%) Mean,SW684; 3.18E−04 microM,77.8%
same,Relative cell count (%) Mean,SW684; 3.18E−05 microM,91.9%
same,EC50,"Hs 729; Homo sapiens, 72 h, Hs 729, 3-day incubation, read-out: Cell Count EC50",14.1 nM
same,GI50,"Hs 729; Homo sapiens, 72 h, Hs 729, 3-day incubation, read-out: Cell Count GI50",17.3 nM
same,IC50,"Hs 729; Homo sapiens, 72 h, Hs 729, 3-day incubation, read-out: Cell Count IC50",> 1000 nM
same,Cell Count Activity Area,"Hs 729; Hs 729, scale 0-10",1.80
same,Relative cell count (%) Mean,Hs 729; 1.00E+00 microM,65.5%
same,Relative cell count (%) Mean,Hs 729; 1.00E−01 microM,69.6%
same,Relative cell count (%) Mean,Hs 729; 1.00E−02 microM,79.6%
same,Relative cell count (%) Mean,Hs 729; 1.00E−03 microM,87.3%
same,Relative cell count (%) Mean,Hs 729; 1.01E−04 microM,95.7%
same,Relative cell count (%) Mean,Hs 729; 3.16E−01 microM,63.1%
same,Relative cell count (%) Mean,Hs 729; 3.17E−02 microM,76.9%
same,Relative cell count (%) Mean,Hs 729; 3.17E−03 microM,79.1%
same,Relative cell count (%) Mean,Hs 729; 3.18E−04 microM,87.7%
same,Relative cell count (%) Mean,Hs 729; 3.18E−05 microM,91.5%
same,Cell Count Activity Area,"A388; A388, scale 0-10",3.22
same,Relative cell count (%) Mean,A388; 1.00E+00 microM,53.8%
same,Relative cell count (%) Mean,A388; 1.00E−01 microM,62.3%
same,Relative cell count (%) Mean,A388; 1.00E−02 microM,63.3%
same,Relative cell count (%) Mean,A388; 1.00E−03 microM,69.1%
same,Relative cell count (%) Mean,A388; 1.01E−04 microM,77.9%
same,Relative cell count (%) Mean,A388; 3.16E−01 microM,59.0%
same,Relative cell count (%) Mean,A388; 3.17E−02 microM,59.6%
same,Relative cell count (%) Mean,A388; 3.17E−03 microM,67.1%
same,Relative cell count (%) Mean,A388; 3.18E−04 microM,76.3%
same,Relative cell count (%) Mean,A388; 3.18E−05 microM,89.9%
same,EC50,"A388; Homo sapiens, 72 h, A388, 3-day incubation, read-out: Cell Count EC50",0.19 nM
same,GI50,"A388; Homo sapiens, 72 h, A388, 3-day incubation, read-out: Cell Count GI50",50.7 nM
same,IC50,"A388; Homo sapiens, 72 h, A388, 3-day incubation, read-out: Cell Count IC50",> 1000 nM
same,Relative cell count (%) Mean,AGS; 1.00E+00 microM,32.3%
same,Relative cell count (%) Mean,AGS; 1.00E−01 microM,39.3%
same,Relative cell count (%) Mean,AGS; 1.00E−02 microM,39.1%
same,Relative cell count (%) Mean,AGS; 1.00E−03 microM,39.8%
same,Relative cell count (%) Mean,AGS; 1.01E−04 microM,58.2%
same,Relative cell count (%) Mean,AGS; 3.16E−01 microM,38.3%
same,Relative cell count (%) Mean,AGS; 3.17E−02 microM,34.7%
same,Relative cell count (%) Mean,AGS; 3.17E−03 microM,40.1%
same,Relative cell count (%) Mean,AGS; 3.18E−04 microM,45.6%
same,Relative cell count (%) Mean,AGS; 3.18E−05 microM,82.7%
same,EC50,"AGS; Homo sapiens, 72 h, 3-day incubation, read-out: Cell Count EC50",0.0635 nM
same,GI50,"AGS; Homo sapiens, 72 h, 3-day incubation, read-out: Cell Count GI50",0.136 nM
same,IC50,"AGS; Homo sapiens, 72 h, 3-day incubation, read-out: Cell Count IC50",0.186 nM
same,Cell Count Activity Area,AGS; scale 0-10,5.50
same,Cell Count Activity Area,"CRO-AP2; CRO-AP2, scale 0-10",5.61
same,Relative cell count (%) Mean,CRO-AP2; 1.00E+00 microM,23.3%
same,Relative cell count (%) Mean,CRO-AP2; 1.00E−01 microM,24.5%
same,Relative cell count (%) Mean,CRO-AP2; 1.00E−02 microM,27.9%
same,Relative cell count (%) Mean,CRO-AP2; 1.00E−03 microM,38.7%
same,Relative cell count (%) Mean,CRO-AP2; 1.01E−04 microM,89.0%
same,Relative cell count (%) Mean,CRO-AP2; 3.16E−01 microM,23.3%
same,Relative cell count (%) Mean,CRO-AP2; 3.17E−02 microM,23.6%
same,Relative cell count (%) Mean,CRO-AP2; 3.17E−03 microM,29.7%
same,Relative cell count (%) Mean,CRO-AP2; 3.18E−04 microM,59.0%
same,Relative cell count (%) Mean,CRO-AP2; 3.18E−05 microM,93.4%
same,EC50,"CRO-AP2; Homo sapiens, 72 h, CRO-AP2, 3-day incubation, read-out: Cell Count EC50",0.319 nM
same,GI50,"CRO-AP2; Homo sapiens, 72 h, CRO-AP2, 3-day incubation, read-out: Cell Count GI50",0.434 nM
same,IC50,"CRO-AP2; Homo sapiens, 72 h, CRO-AP2, 3-day incubation, read-out: Cell Count IC50",0.536 nM
same,Cell Count Activity Area,"CML-T1; CML-T1, scale 0-10",4.54
same,Relative cell count (%) Mean,CML-T1; 1.00E+00 microM,36.5%
same,Relative cell count (%) Mean,CML-T1; 1.00E−01 microM,42.6%
same,Relative cell count (%) Mean,CML-T1; 1.00E−02 microM,46.7%
same,Relative cell count (%) Mean,CML-T1; 1.00E−03 microM,55.6%
same,Relative cell count (%) Mean,CML-T1; 1.01E−04 microM,83.6%
same,Relative cell count (%) Mean,CML-T1; 3.16E−01 microM,33.1%
